{"source": "patent US12285428B2", "about": "(IMBRIA PHARMACEUTICALS, INC., priority 2021, dated 2025)", "key": {"clinical [1]": {"assay": "clinical", "conditions": "in vivo, po", "description": "Before dosing (on Days 1, 4, 7, and 10 in the single-dose MR part), subjects fasted overnight for at least 10 hours following a light supper on the evening before. Following dosing, subjects fasted for 4 hours until lunch. During fasting, fluids other than water were not allowed; however, water was not allowed from 2 hours predose until 1 hour postdose (apart from the water taken with the dose).\nThe AUCs were calculated using the linear up/log down trapezoidal rule, expressed in units of concentration×time.\nSubjects with R2 below 0.80 or % AUCextra>20% were not excluded from the dose-proportionality evaluation based on AUC0-inf. A point estimate and 95% CI were produced for the slope. […] Since there were only 2 dose levels in the MAD part, no dose-proportionality analysis was performed for the MAD part."}, "[2]": {"assay": "FIH study, FE arm of SAD part: effect of food on plasma PK (150 mg IMB-1018972)", "conditions": "human, in vivo", "description": "Subjects assigned to Group A4 also participated in the FE arm and received the same single dose of IMB-1018972 or placebo under fed conditions (Food and Drug Administration [FDA]-defined high-fat breakfast after an overnight fast of at least 10 hours) in a second period at least 1 week after drug administration under fasted conditions in the SAD part.\nThen, subjects received an FDA-defined high-fat breakfast that had to be consumed within 20 minutes. The entire breakfast had to be consumed by the subjects. […] Following dosing, subjects fasted for 4 hours until lunch. During fasting, fluids other than water were not allowed.\nFor the second period of Group A4 in the FE arm, and for Day 13 of the single-dose MR part, the FDA-defined high-fat breakfast of 918 kcal consisted of: • 2 fried eggs (in 15 g butter/margarine) (approximately 100 g) • 1 portion of bacon (40 g) (or brie 60+ for vegetarians) • 1 portion of fried potatoes (115 g) • 2 slices of (toasted) (wheat) bread (approximately 70 g) with 15 g margarine • 1 glass of whole milk (240 mL) The total of 918 kcal (vegetarian version 915 kcal) could be broken down as follows: • 39 g protein=156 kcal • 59 g fat=527 kcal • 59 g carbohydrates=235 kcal Blinding"}, "[3]": {"conditions": "human, in vivo", "description": "Subjects received multiple oral doses of an IR formulation of IMB-1018972 or placebo once every 12 hours (q12h) for 14 consecutive days.\nThe doses were selected based upon the safety, tolerability, and PK data from the SAD part: • Group B1 multiple oral doses of an IR formulation of 150 mg IMB-1018972 (n=9) or matching placebo (n=3) twice daily (q12h) for 14 days; on Day 14 only a single morning dose was administered • Group B2: multiple oral doses of an IR formulation of 50 mg IMB-1018972 (n=9) or matching placebo (n=3) q12h for 14 days; on Day 14 only a single morning dose was administered\nBefore each morning dose, subjects fasted overnight for at least 10 hours following a snack on the evening before. On Days 1 and 14, subjects received a standardized breakfast that had to be consumed within 20 minutes. Dosing occurred at 30 minutes after the start of breakfast. Following dosing, subjects fasted for 4 hours until lunch. During fasting, fluids other than water were not allowed. On Days 2 to 13, breakfast was not standardized and was given within maximally 1 hour before dosing and consumed before dosing. No fasting after dosing was applicable on these days.\nOn all dosing days, an evening snack was given within maximally 1 hour before dosing and consumed before dosing."}, "[4]": {"conditions": "human, in vivo, 200 mg", "description": "On Day 13, subjects received a FDA-defined high-fat breakfast that had to be consumed within 20 minutes. […] Following dosing, subjects fasted for 4 hours until lunch. During fasting, fluids other than water were not allowed. Subjects were not allowed to lie down for 4 hours after dosing, except when required for assessments that needed to be performed."}, "[5]": {"conditions": "human, in vivo", "remark": "listed apart in the source", "procedure": "(§1) Urine collection for PK was only conducted in the SAD part, but not in the second period of the FE group A4. […] The subjects were instructed to empty their bladders completely before study drug administration and at the end of each collection interval. A blank urine sample was collected within 12 hours prior to study drug administration. The exact times of urine collection and the urine weight of the entire interval (before and after addition of any urine stabilizers, if used) were recorded in the eCRF."}, "[6]": {"conditions": "human, in vivo, po"}, "clinical [7]": {"assay": "clinical", "conditions": "human, in vivo, po", "procedure": "as §1"}, "[8]": {"assay": "FIH study, SAD part: PK in urine", "procedure": "as §1"}}, "note": "Like-named read-outs stand apart in the source and are kept apart here.", "data": [{"smiles": "COc1ccc(CN2CCN(CCO)CC2)c(OC)c1OC", "note": "[IMB-1028814, 2-[4-[(2,3,4-trimethoxyphenyl)methyl]piperazin-1-yl]ethanol]", "values": [{"measurement": "Time at which detectable plasma concentrations were generally seen", "setting": "clinical [1]; human", "value": "15 to 30", "unit": "min"}, {"measurement": "Tmax", "setting": "clinical [1]; human", "value": "~1", "unit": "h"}, {"measurement": "half-life", "setting": "clinical [1]; human", "value": "2.6 to 3", "unit": "h"}, {"measurement": "Tmax", "setting": "clinical [1]; human, 50 mg", "value": "0.5 to 1.02", "unit": "h"}, {"measurement": "Fashion of elimination", "setting": "clinical [1]", "value": "biphasic"}, {"measurement": "Cmax lower after high-fat breakfast relative to fasted conditions", "setting": "[2]", "value": "approximately 36%"}, {"measurement": "Effect of food on AUC0-inf: estimate (fed relative to fasted)", "setting": "[2]", "value": 1.12}, {"measurement": "Effect of food on AUC0-t: estimate (fed relative to fasted)", "setting": "[2]", "value": 1.12}, {"measurement": "Effect of food on Cmax: estimate (fed relative to fasted)", "setting": "[2]", "value": 0.64}, {"measurement": "Tmax", "setting": "[2]; Median tmax", "value": 1, "unit": "h"}, {"measurement": "Geometric mean Cmax higher on Day 1 after 150 mg fed in the MAD part than after single 150 mg fed in the SAD part", "setting": "[3]", "value": 97, "unit": "%"}, {"measurement": "Cmax higher after high-fat breakfast relative to fasted conditions", "setting": "[4]", "value": "approximately 42%"}, {"measurement": "Effect of food on AUC0-inf: estimate (fed relative to fasted)", "setting": "[4]", "value": 1.16}, {"measurement": "Effect of food on AUC0-t: estimate (fed relative to fasted)", "setting": "[4]", "value": 1.16}, {"measurement": "Effect of food on Cmax: estimate (fed relative to fasted)", "setting": "[4]", "value": 1.42}, {"measurement": "Primary clearance mechanism", "setting": "[5]", "value": "metabolism"}, {"measurement": "AUC0-t higher after the 8-hour MR formulation than after the 4-hour MR formulation", "setting": "[6]", "value": 6, "unit": "%"}, {"measurement": "AUC0-t lower after the 8-hour MR formulation than after the 4-hour MR formulation", "setting": "[6]", "value": 26, "unit": "%"}, {"measurement": "CL renal", "setting": "clinical [7]", "value": "62.7 to 89.5", "unit": "mL/min"}]}, {"smiles": "COc1ccc(CN2CCNCC2)c(OC)c1OC", "note": "[trimetazidine, reference compound]", "values": [{"measurement": "Time at which detectable plasma concentrations were generally seen", "setting": "clinical [1]; human", "value": "15 to 30", "unit": "min"}, {"measurement": "Geometric mean Cmax lower on Day 1 after 150 mg fed in the MAD part than after single 150 mg fed in the SAD part", "setting": "[3]", "value": 32, "unit": "%"}, {"measurement": "AUC0-t higher after the 8-hour MR formulation than after the 4-hour MR formulation", "setting": "[6]", "value": 4, "unit": "%"}, {"measurement": "AUC0-t lower after the 8-hour MR formulation than after the 4-hour MR formulation", "setting": "[6]", "value": 12, "unit": "%"}, {"measurement": "Primary clearance mechanism", "setting": "[8]; concluded from urinary excretion", "value": "renal excretion"}, {"measurement": "Renal handling (CLR greater than glomerular filtration rate, 7.5 L/h)", "setting": "[8]; in vivo", "value": "net tubular secretion"}, {"measurement": "Arithmetic mean percent of the dose excreted in urine as trimetazidine", "setting": "[8]; within 48 hours after single oral 35 mg trimetazidine", "value": 54.47, "unit": "%"}]}]}
